Experimental data from US8415295B2, “Heterocyclic boronic acid compounds” (Phenomix Corporation, priority 2003, dated 2013).

Experiment: Dependence of aminoboronate (closed) and boronic acid (open) forms on pH, 1H-NMR in D2O phosphate
Format: physicochemical
Settings: 0.4 M Na2HPO4 in D2O, three days in the dark, FIG. 1
Experimental: A 0.4 M stock solution of Na2HPO4 was prepared by dissolving 909 mg of salt in 16 mL of D2O. pH was adjusted to the desired value by dropwise addition of either […] in D2O or 5% DCl in D2O. The pH values were measured with a Fisher Scientific Accumet AB15 pH meter. Aliquots of the stock solution (4 mL) were prepared and 8 mg of compound 4 in the closed form (aminoboronate) were added to each one. The scintillation vials were capped, sealed with parafilm and allowed to stand in the dark for three days. After this time pH was measured again. The open/closed (i.e., linear/cyclic) ratio of compound 4 isomers at each pH was determined by recording the corresponding ^1H-NMR spectra in a Varian AS 500 MHz instrument and measuring the ratio of the integrals of the peaks at 2.90-2.95 ppm and 2.40-2.50 ppm characteristic of the open and closed forms, respectively.

## O=C(CNC1CCCC1)N1CCC[C@H]1B(O)O [Compound 4, (2R)-1-(2-Cyclopentylamino-acetyl)-boroPro-OH]
  open/closed (linear/cyclic) ratio of isomers at each pH: the closed form predominates at higher pHs such as physiological pH, whereas the open form predominates at lower pHs
